Data reported in PMC6930605, “Matrix Metalloproteinase Triple-Helical Peptide Inhibitors: Potential Cross-Reactivity with Caspase-11” (Molecules, 2019).

Experiments:
MMP-2 = target: T1, MMP-2 (Homo sapiens, UniProt P08253); conditions: 37 °C; ref [15],[19]; cited from earlier work
T1 construct: Recombinant MMP-2 and MMP-9 catalytic domain were purchased from Sigma-Aldrich; purchased Sigma-Aldrich
T1 sequence (P08253 110-660): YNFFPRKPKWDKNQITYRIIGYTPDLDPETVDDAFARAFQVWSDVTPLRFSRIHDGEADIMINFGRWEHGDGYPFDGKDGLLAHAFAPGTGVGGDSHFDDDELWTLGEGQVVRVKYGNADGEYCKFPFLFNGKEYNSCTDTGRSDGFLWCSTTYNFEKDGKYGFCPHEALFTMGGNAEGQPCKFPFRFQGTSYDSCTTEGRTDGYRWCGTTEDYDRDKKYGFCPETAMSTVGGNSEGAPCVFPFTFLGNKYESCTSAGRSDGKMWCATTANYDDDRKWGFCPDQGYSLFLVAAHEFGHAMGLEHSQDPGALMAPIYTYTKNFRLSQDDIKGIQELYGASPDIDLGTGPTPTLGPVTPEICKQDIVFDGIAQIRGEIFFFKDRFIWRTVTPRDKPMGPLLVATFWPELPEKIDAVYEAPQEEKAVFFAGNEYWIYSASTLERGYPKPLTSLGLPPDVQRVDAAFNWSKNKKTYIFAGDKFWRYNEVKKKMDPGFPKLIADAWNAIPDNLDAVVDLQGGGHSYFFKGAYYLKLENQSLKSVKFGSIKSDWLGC

MMP-3 = target: MMP-3; parameters: method as in 2 sources, ref [19] = [19]; PMID 28394608; doi:10.1021/acs.jmedchem.7b00018; 19. Bhowmick M. Tokmina-Roszyk D. Onwuha-Ekpete L. Harmon K. Robichaud T. Fuerst R. Stawikowska R. Steffensen B. Roush W.R. Wong H. Second Generation Triple-Helical Peptide Transition State Analog Mat ||| ref [15],[19] = [15]; PMID 17672455; doi:10.1021/ja0715849; 15. Lauer-Fields J.L. Brew K. Whitehead J.K. Li S. Hammer R.P. Fields G.B. Triple-helical transition-state analogs: A new class of selective matrix metalloproteinase inhibitors J. Am. Chem. Soc. 2007 || [19]; PMID 28394608; doi:10.1021/acs.jmedchem.7b00018; 19. Bhowmick M. Tokmina-Roszyk D. Onwuha-Ekpete L. Harmon K. Robichaud T. Fuerst R. Stawikowska R. Steffensen B. Roush W.R. Wong H. Second Generation Triple-Helical Peptide Transition State Analog Mat; conditions: no or weak inhibition of MMP-3; ref [15],[19]; cited from earlier work
MMP-1 = target: MMP-1; parameters: method as in 2 sources, ref [19] = [19]; PMID 28394608; doi:10.1021/acs.jmedchem.7b00018; 19. Bhowmick M. Tokmina-Roszyk D. Onwuha-Ekpete L. Harmon K. Robichaud T. Fuerst R. Stawikowska R. Steffensen B. Roush W.R. Wong H. Second Generation Triple-Helical Peptide Transition State Analog Mat ||| ref [15],[19] = [15]; PMID 17672455; doi:10.1021/ja0715849; 15. Lauer-Fields J.L. Brew K. Whitehead J.K. Li S. Hammer R.P. Fields G.B. Triple-helical transition-state analogs: A new class of selective matrix metalloproteinase inhibitors J. Am. Chem. Soc. 2007 || [19]; PMID 28394608; doi:10.1021/acs.jmedchem.7b00018; 19. Bhowmick M. Tokmina-Roszyk D. Onwuha-Ekpete L. Harmon K. Robichaud T. Fuerst R. Stawikowska R. Steffensen B. Roush W.R. Wong H. Second Generation Triple-Helical Peptide Transition State Analog Mat; conditions: no or weak inhibition of MMP-1; ref [15],[19]; cited from earlier work
MMP-9 = target: T2, MMP-9 (Homo sapiens, UniProt P14780); conditions: 37 °C; ref [15],[19]; cited from earlier work
T2 construct: Recombinant MMP-2 and MMP-9 catalytic domain were purchased from Sigma-Aldrich; purchased Sigma-Aldrich

caspase-11 = test: Caspase enzyme assay (residual caspase-11 activity); format: biochemical, mouse
MT1-MMP = target: MT1-MMP; parameters: method as in 2 sources, ref [19] = [19]; PMID 28394608; doi:10.1021/acs.jmedchem.7b00018; 19. Bhowmick M. Tokmina-Roszyk D. Onwuha-Ekpete L. Harmon K. Robichaud T. Fuerst R. Stawikowska R. Steffensen B. Roush W.R. Wong H. Second Generation Triple-Helical Peptide Transition State Analog Mat ||| ref [15],[19] = [15]; PMID 17672455; doi:10.1021/ja0715849; 15. Lauer-Fields J.L. Brew K. Whitehead J.K. Li S. Hammer R.P. Fields G.B. Triple-helical transition-state analogs: A new class of selective matrix metalloproteinase inhibitors J. Am. Chem. Soc. 2007 || [19]; PMID 28394608; doi:10.1021/acs.jmedchem.7b00018; 19. Bhowmick M. Tokmina-Roszyk D. Onwuha-Ekpete L. Harmon K. Robichaud T. Fuerst R. Stawikowska R. Steffensen B. Roush W.R. Wong H. Second Generation Triple-Helical Peptide Transition State Analog Mat; conditions: no or weak inhibition of MT1-MMP; ref [15],[19]; cited from earlier work
MMP-8 = target: T3, MMP-8 (Homo sapiens, UniProt P22894); parameters: method as in 2 sources, ref [19] = [19]; PMID 28394608; doi:10.1021/acs.jmedchem.7b00018; 19. Bhowmick M. Tokmina-Roszyk D. Onwuha-Ekpete L. Harmon K. Robichaud T. Fuerst R. Stawikowska R. Steffensen B. Roush W.R. Wong H. Second Generation Triple-Helical Peptide Transition State Analog Mat ||| ref [15],[19] = [15]; PMID 17672455; doi:10.1021/ja0715849; 15. Lauer-Fields J.L. Brew K. Whitehead J.K. Li S. Hammer R.P. Fields G.B. Triple-helical transition-state analogs: A new class of selective matrix metalloproteinase inhibitors J. Am. Chem. Soc. 2007 || [19]; PMID 28394608; doi:10.1021/acs.jmedchem.7b00018; 19. Bhowmick M. Tokmina-Roszyk D. Onwuha-Ekpete L. Harmon K. Robichaud T. Fuerst R. Stawikowska R. Steffensen B. Roush W.R. Wong H. Second Generation Triple-Helical Peptide Transition State Analog Mat; conditions: no or weak inhibition of MMP-8; ref [15],[19]; cited from earlier work
T3 construct: purchased R&D Systems

MMP-13 = MMP-13 (Homo sapiens, UniProt P45452); conditions: no or weak inhibition of MMP-13; ref [15],[19]; cited from earlier work
[1] = ref [19]; cited from earlier work

T3 sequence (P22894 101-467): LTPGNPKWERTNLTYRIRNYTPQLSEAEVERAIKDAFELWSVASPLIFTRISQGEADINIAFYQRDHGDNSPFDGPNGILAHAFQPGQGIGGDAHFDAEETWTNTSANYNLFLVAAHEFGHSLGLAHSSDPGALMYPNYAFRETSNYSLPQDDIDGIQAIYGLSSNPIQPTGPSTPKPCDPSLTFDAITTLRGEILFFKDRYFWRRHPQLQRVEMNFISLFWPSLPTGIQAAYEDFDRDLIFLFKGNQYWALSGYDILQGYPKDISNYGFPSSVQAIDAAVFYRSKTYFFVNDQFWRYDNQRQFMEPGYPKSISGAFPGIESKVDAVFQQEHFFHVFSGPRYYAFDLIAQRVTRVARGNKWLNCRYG
T2 sequence (P14780 107-444 limits assumed, species assumed): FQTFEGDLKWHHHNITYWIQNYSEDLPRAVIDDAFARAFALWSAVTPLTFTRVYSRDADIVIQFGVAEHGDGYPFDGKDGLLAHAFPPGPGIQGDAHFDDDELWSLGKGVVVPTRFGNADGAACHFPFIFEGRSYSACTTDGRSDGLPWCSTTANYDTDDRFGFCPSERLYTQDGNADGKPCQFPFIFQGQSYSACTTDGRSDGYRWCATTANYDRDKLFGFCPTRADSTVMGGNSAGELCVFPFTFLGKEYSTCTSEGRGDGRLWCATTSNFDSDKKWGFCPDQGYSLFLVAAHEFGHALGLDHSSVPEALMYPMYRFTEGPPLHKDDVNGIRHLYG

| change in extent of caspase-11 inhibition over time (caspase-11; 5 μM inhibitor, 2 h pre-incubation, 1 h monitoring, data not shown) | inhibition of caspase-11 activity (caspase-11; 5 μM inhibitor incubated with enzyme 2 h prior to substrate, 3 U/μL (1.08 μM) caspase-11, 250 μM acetyl-Trp-Glu-His-Asp-pNA, pH 6.5, 37 °C, absorbance 405 nm, result in words (up to 15 min)) | Substance | Ki (MMP-2) [µM] | Ki (MMP-3) [µM] | Ki (MMP-1) [µM] | Ki (MMP-9) [µM] | inhibition of caspase-11 activity at early time points (caspase-11; 5 μM inhibitor, 2 h inhibitor pre-incubation (Figure 2), stated to be similar to no pre-incubation) | inhibition of caspase-11 activity at early time points (caspase-11; no inhibitor pre-incubation time, data not shown) | Ki (MT1-MMP) [µM] | Ki (MMP-8) [µM] | Ki (MMP-13) [µM] | efficacy in animal model of multiple sclerosis [1] |
| --- | --- | --- | --- | --- | --- | --- | --- | --- | --- | --- | --- | --- |
| did not increase after 1 h |  | (Gly-Pro-Hyp)4-Gly-mep-Flp-Gly-Pro-Pro-GlyΨ{PO2H-CH2}Val-Val-Gly-Glu-Gln-Gly-Glu-Gln-Gly-Pro-Pro-Gly-mep-Flp-(Gly-Pro-Hyp)4-NH2 | 0.00224 | 10 to 50 | 10 to 50 | 0.00098 | no inhibition to occur at early time points | no inhibition to occur at early time points | 10 to 50 | 10 to 50 | 10 to 50 | efficacious in an animal model of multiple sclerosis |
|  | completely inhibit enzymatic activity | Ac-LEVD-aldehyde (SMILES CC(=O)N[C@@H](CC(C)C)C(=O)N[C@@H](CCC(=O)O)C(=O)N[C@H](C(=O)N[C@H](C=O)CC(=O)O)C(C)C) [reference compound] |  |  |  |  |  |  |  |  |  |  |
